From PubChem BioAssay (NCI) come the findings set out here.

Among the test systems are M14 melanoma; RXF 393 renal; HCT-15 colon; HCT-116 colon; HCC-2998 colon; EKVX NSCLC; SK-MEL-5 melanoma; HOP-92 NSCLC; HL-60(TB) leukemia; TK-10 renal; MDA-MB-231 breast; NCI-H23 lung; ACHN renal; OVCAR-3 ovarian; MDA-MB-435; DU-145 prostate; LOX IMVI melanoma; SK-OV-3 ovarian.
What all share (test): DTP human tumour cell line panel, 48 h

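Following 48 hours of exposure in 96-well plates, responses at five concentrations were used to interpolate endpoints linearly. TGI denotes the concentration required for complete inhibition of growth.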

As for `O=C(CC(=O)n1nc(-c2ccccc2)c(N=Nc2ccc(Cl)cc2)c1-c1ccccc1)Nc1cccc(Cl)c1`, the TGI in the experiment with M14 melanoma, in the experiment on RXF 393 renal, in the experiment with HCT-15 colon, in the experiment on HCT-116 colon, in the experiment with HCC-2998 colon and in the experiment with EKVX NSCLC was greater than 100 µM in each case. Further, the total growth inhibition concentration (TGI) in the experiment with SK-MEL-5 melanoma, with HOP-92 NSCLC, in the experiment on HL-60(TB) leukemia, in the experiment with TK-10 renal, in the experiment on MDA-MB-231 breast and with NCI-H23 lung was greater than 100 µM throughout. In addition, the TGI in the experiment with ACHN renal was greater than 100 µM.
On to `COc1cccc(C2c3cc4c(cc3OC(N3CCCC3)C2C)OCO4)c1` (configuration not stated), for which the TGI in the experiment on M14 melanoma was 21.1 µM; in the experiment on OVCAR-3 ovarian, 28.6 µM; in the experiment on HCT-15 colon it was greater than 100 µM; in the experiment with HCT-116 colon it was 18.3 µM; with HCC-2998 colon, 24.9 µM; in the experiment with EKVX NSCLC, 94.1 µM. The concentration for total growth inhibition (TGI) is 18.5 µM in the experiment with SK-MEL-5 melanoma; 12.6 µM in the experiment on HOP-92 NSCLC; greater than 100 µM in the experiment on TK-10 renal; greater than 100 µM in the experiment on NCI-H23 lung; 11.6 µM with MDA-MB-435; 83.8 µM in the experiment on ACHN renal. For the same compound, the values for the concentration for total growth inhibition (TGI) with DU-145 prostate and with LOX IMVI melanoma were 58.6 µM and 30.5 µM, respectively.
In the case of `CCCCn1c(C)c(C(=O)OCC)c2cc(OCc3ccc(C(=O)Nn4c(C)ccc4C)cc3)c(Br)cc21`, the concentration for total growth inhibition (TGI) with M14 melanoma, with OVCAR-3 ovarian, in the experiment with HCT-15 colon, with HCT-116 colon, in the experiment with HCC-2998 colon and in the experiment on EKVX NSCLC was greater than 100 µM each time. In addition, the total growth inhibition concentration (TGI) in the experiment on SK-MEL-5 melanoma, with SK-OV-3 ovarian, with HOP-92 NSCLC, in the experiment on HL-60(TB) leukemia, in the experiment with TK-10 renal and in the experiment on NCI-H23 lung was greater than 100 µM throughout. Moreover, the concentration for total growth inhibition (TGI) in the experiment with MDA-MB-435, with ACHN renal, in the experiment with DU-145 prostate and in the experiment on LOX IMVI melanoma was greater than 100 µM throughout.
With `Cc1ccccc1Nc1cn(COCc2ccccc2)c(=O)[nH]c1=O`, the TGI with M14 melanoma, in the experiment on OVCAR-3 ovarian, in the experiment with RXF 393 renal, in the experiment on HCT-15 colon, in the experiment on HCT-116 colon and in the experiment on HCC-2998 colon was greater than 100 µM each time. The TGI in the experiment with EKVX NSCLC, with SK-MEL-5 melanoma, in the experiment on HOP-92 NSCLC, in the experiment with HL-60(TB) leukemia, with NCI-H23 lung and with MDA-MB-435 was greater than 100 µM in each case. For the same compound, the TGI in the experiment on ACHN renal, with DU-145 prostate and with LOX IMVI melanoma was greater than 100 µM throughout.
As to `O=c1[nH]nc(-c2cccc(Br)c2)[nH]1`, the TGI with M14 melanoma, in the experiment on OVCAR-3 ovarian, in the experiment on RXF 393 renal, in the experiment with HCT-15 colon, in the experiment on HCT-116 colon and in the experiment on HCC-2998 colon was greater than 100 µM in each case. Also, the TGI in the experiment on EKVX NSCLC is 79.1 µM; in the experiment with SK-MEL-5 melanoma it was greater than 100 µM; with HOP-92 NSCLC it was greater than 100 µM; in the experiment with HL-60(TB) leukemia, greater than 100 µM; with TK-10 renal it was greater than 100 µM; in the experiment with NCI-H23 lung, greater than 100 µM. Also, the total growth inhibition concentration (TGI) with MDA-MB-435, in the experiment on ACHN renal, with DU-145 prostate and in the experiment with LOX IMVI melanoma was greater than 100 µM each time.
For `N#[O+].O=S(=O)([O-])[O-].[NH2-].[NH2-].[NH2-].[NH2-].[NH2-].[Ru+5]`, the total growth inhibition concentration (TGI) with OVCAR-3 ovarian, in the experiment on RXF 393 renal, in the experiment with HCT-15 colon, with HCT-116 colon, in the experiment on HCC-2998 colon and in the experiment on EKVX NSCLC was greater than 100 µM in each case. The total growth inhibition concentration (TGI) in the experiment on SK-MEL-5 melanoma, in the experiment on SK-OV-3 ovarian, with HOP-92 NSCLC, in the experiment on HL-60(TB) leukemia, in the experiment on TK-10 renal and in the experiment with NCI-H23 lung was greater than 100 µM each time. The TGI in the experiment on ACHN renal and with LOX IMVI melanoma was greater than 100 µM in each case.
`CC1=CC(=O)NP(=O)(Oc2ccc(C)cc2)N1` (configuration not stated): the TGI in the experiment on M14 melanoma, in the experiment on OVCAR-3 ovarian, with HCT-15 colon, in the experiment with HCT-116 colon, with EKVX NSCLC and with SK-MEL-5 melanoma was greater than 100 µM throughout. For the same compound, the concentration for total growth inhibition (TGI) with SK-OV-3 ovarian, with HOP-92 NSCLC, in the experiment with HL-60(TB) leukemia, in the experiment with TK-10 renal, in the experiment with NCI-H23 lung and in the experiment on ACHN renal was greater than 100 µM each time. Further, the TGI in the experiment with LOX IMVI melanoma was greater than 100 µM.
As to `COc1cc2c(c(OC)c1OC)-c1ccc(SC)c(=O)cc1C(CC(=O)Oc1ccc([N+](=O)[O-])cc1)C2` (configuration not stated), the TGI in the experiment on M14 melanoma is 1.53 µM; with OVCAR-3 ovarian, 0.905 µM; in the experiment on RXF 393 renal, 0.65 µM; in the experiment with HCT-15 colon, greater than 100 µM; with HCT-116 colon, 1.82 µM; in the experiment on HCC-2998 colon, 2.13 µM. Besides, the total growth inhibition concentration (TGI) with EKVX NSCLC is greater than 100 µM; in the experiment with SK-MEL-5 melanoma, 13.9 µM; in the experiment on SK-OV-3 ovarian, greater than 100 µM; with HOP-92 NSCLC, greater than 48.3 µM; in the experiment on HL-60(TB) leukemia, greater than 38.2 µM; with TK-10 renal it was greater than 51.3 µM. The TGI in the experiment on NCI-H23 lung was 1.88 µM; in the experiment with ACHN renal, greater than 40.5 µM; with LOX IMVI melanoma, 20.2 µM.
`CC(=O)OC1CC2OC(Cc3ccccc32)O1` (configuration not stated): the TGI in the experiment with M14 melanoma, in the experiment with OVCAR-3 ovarian, with RXF 393 renal, with HCT-116 colon, in the experiment on HCC-2998 colon and with EKVX NSCLC was greater than 100 µM throughout. Further, the TGI in the experiment on SK-OV-3 ovarian, with HOP-92 NSCLC, in the experiment with HL-60(TB) leukemia, in the experiment with TK-10 renal, with NCI-H23 lung and in the experiment with ACHN renal was greater than 100 µM in each case. The TGI in the experiment on LOX IMVI melanoma was greater than 100 µM.
In the case of `CN(C)/N=C(\CCN1CCCC1)CC(c1ccccc1)c1c(O)c2ccccc2oc1=O` (configuration not stated), the TGI in the experiment on M14 melanoma, in the experiment on OVCAR-3 ovarian, in the experiment with RXF 393 renal, in the experiment on HCT-116 colon, with HCC-2998 colon and in the experiment on EKVX NSCLC was greater than 100 µM each time. The TGI in the experiment with SK-OV-3 ovarian was greater than 100 µM; in the experiment with HOP-92 NSCLC, greater than 100 µM; in the experiment with HL-60(TB) leukemia, 72.9 µM; in the experiment with TK-10 renal, greater than 100 µM; in the experiment on NCI-H23 lung, greater than 100 µM; in the experiment with ACHN renal, greater than 100 µM. The compound further displayed a TGI with LOX IMVI melanoma greater than 100 µM.
